Experimental data: ChEMBL document CHEMBL5120838, “Synthesis and biological evaluation of geniposide derivatives as inhibitors of hyperuricemia, inflammatory and fibrosis” (Eur J Med Chem, 2022)
Calls of active or inactive are those of the source. The calls are words filed in the database; no cut-off is given here.

Key:
[1] = tested on: Mus musculus; assay: (§1) Renal protective activity against adenine and potassium oxonate-induced hyperuricemia Kunming mouse model assessed as reduction in IL-1beta expression in kidney at 5 to 20 mg/kg, po administered via gavage for 2 weeks by ELISA relative to control; format: functional; design: scale not given: the % may be the effect or the level left; details: dose 5-20 mg/kg
[2] = tested on: Mus musculus; assay: Anti-hyperuricemic activity against adenine and potassium oxonate-induced hyperuricemia Kunming mouse model assessed as reduction in serum uric acid level at 20 mg/kg, po administered via gavage once daily for 4 weeks (reference value: 356.15 +/- 3.31 uM); format: functional
[3] = tested on: Mus musculus; assay: as §1, with “hyperuricemia-induced renal fibrosis by measuring reduction in collagen-1” for “IL-1beta”, “immunoblot analysis” for “ELISA relative to control”; format: functional, organism-based; details: dose 5-20 mg/kg
[4] = tested on: Mus musculus; assay: Anti-hyperuricemic activity against adenine and potassium oxonate-induced hyperuricemia Kunming mouse model assessed as reduction in serum uric acid level at 10 mg/kg, po administered via gavage once daily for 4 weeks (reference value: 356.15 +/- 3.31 uM); format: functional
[5] = tested on: Mus musculus; assay: Renal protective activity against adenine and potassium oxonate-induced hyperuricemia Kunming mouse model assessed as reduction in renal inflammation by measuring reduction in TNF-alpha expression at 5 to 20 mg/kg, po administered via gavage for 2 weeks by Western blot analysis; format: functional, organism-based; details: dose 5-20 mg/kg
[6] = tested on: Mus musculus; assay: Anti-hyperuricemic activity against adenine and potassium oxonate-induced hyperuricemia Kunming mouse model assessed as blood urea nitrogen level at 5 mg/kg, po administered via gavage once daily for 4 weeks (reference value: 15.25 +/- 1.21 mM); format: functional
[7] = tested on: Mus musculus; assay: (§2) Nephroprotective activity against adenine and potassium oxonate-induced hyperuricemia Kunming mouse model assessed as reduction in connective tissue hyperplasia at 20 mg/kg, po administered via gavage and measured after 21 days by hematoxylin-eosin and Masson trichrome staining based optical microscopic analysis; format: functional, organism-based; details: time 21.0 day
[8] = Stability in simulated gastric fluid assessed as parent compound remaining incubated for 4 hrs by HPLC analysis; format: ADME; details: read-out: Stability
[9] = tested on: HK-2; assay: Antiinflammatory activity in hyperuricemic human HK-2 cells assessed as reduction in TNF-alpha level at 12.5 to 100 uM; format: functional, cell-based; details: dose 12.5-100 µM
[10] = Stability in simulated intestinal fluid assessed as parent compound remaining incubated for 4 hrs by HPLC analysis; format: ADME; details: read-out: Stability
[11] = tested on: HK-2; assay: Cytoprotective activity in human HK-2 cells assessed as reduction in uric acid-induced cell remodeling by inverted light microscopic analysis; format: functional, cell-based; details: dose 12.5-100 µM
[12] = tested on: Mus musculus; assay: Renal protective activity against po dosed adenine and potassium oxonate-induced hyperuricemia Kunming mouse model assessed as reduction in TGF-beta1 expression in kidney administered via gavage for 2 weeks by immunohistochemical staining based optical microscopic analysis; format: functional, organism-based; details: dose 5-20 mg/kg, DDE = dose-dependent effect
[13] = tested on: Mus musculus; assay: Renal protective activity against adenine and potassium oxonate-induced hyperuricemia Kunming mouse model assessed as reduction in renal inflammation by measuring reduction in TLR4 expression at 5 to 20 mg/kg, po administered via gavage for 2 weeks by Western blot analysis; format: functional, organism-based; details: dose 5-20 mg/kg
[14] = tested on: Mus musculus; assay: Anti-hyperuricemic activity against adenine and potassium oxonate-induced hyperuricemia Kunming mouse model assessed as reduction in creatinine level at 5 mg/kg, po administered via gavage once daily for 4 weeks (reference value: 76.87 +/- 0.67 uM); format: functional
[15] = tested on: Mus musculus; assay: as §2, with “neutrophils infiltrations” for “connective tissue hyperplasia”; format: functional, organism-based; details: time 21.0 day
[16] = tested on: Mus musculus; assay: In vivo inhibition of XOD in po dosed adenine and potassium oxonate-induced hyperuricemia Kunming mouse model assessed as reduction in XOD activity in liver administered via gavage once daily for 2 weeks; format: functional, organism-based; details: dose 5-20 mg/kg, DDE = dose-dependent effect
[17] = tested on: Mus musculus; assay: as §2, with “appearance of clear tubular structures” for “reduction in connective tissue hyperplasia”; format: functional, organism-based; details: time 21.0 day
[18] = tested on: Mus musculus; assay: Anti-hyperuricemic activity against adenine and potassium oxonate-induced hyperuricemia Kunming mouse model assessed as reduction in serum uric acid level at 20 mg/kg, po administered via gavage once daily for 2 weeks (reference value: 318.16 +/- 3.31 uM); format: functional
[19] = biological target: T1, Xanthine dehydrogenase/oxidase (Bos taurus, UniProt P80457); assay: Mixed type inhibition of bovine XOD assessed as decrease in Vmax with increase in Km at upto 20 uM using varying levels of xanthine as substrate by Lineweaver-Burk plot analysis; details: cattle
[20] = tested on: Mus musculus; assay: Anti-hyperuricemic activity against adenine and potassium oxonate-induced hyperuricemia Kunming mouse model assessed as reduction in serum creatinine level at 20 mg/kg, po administered via gavage once daily for 2 weeks (reference value: 87.62 +/- 0.67 uM); format: functional
[21] = tested on: Mus musculus; assay: Anti-hyperuricemic activity against adenine and potassium oxonate-induced hyperuricemia Kunming mouse model assessed as blood urea nitrogen level at 20 mg/kg, po administered via gavage once daily for 4 weeks (reference value: 15.25 +/- 1.21 mM); format: functional
[22] = tested on: Mus musculus; assay: as §2, with “cytoplasmic vacuolation of renal tubular epithelial cells” for “connective tissue hyperplasia”; format: functional, organism-based; details: time 21.0 day
[23] = tested on: HK-2; assay: Inhibition of epithelial-mesenchymal transition in human HK-2 cells assessed as downregulation of uric acid-induced collagen-1 protein expression by Western blot analysis; format: functional, cell-based; details: dose 12.5-100 µM, DDE = dose-dependent effect
[24] = tested on: Mus musculus; assay: Anti-hyperuricemic activity against adenine and potassium oxonate-induced hyperuricemia Kunming mouse model assessed as reduction in serum uric acid level at 5 mg/kg, po administered via gavage once daily for 4 weeks (reference value: 356.15 +/- 3.31 uM); format: functional
[25] = tested on: Mus musculus; assay: (§3) Renal protective activity against adenine and potassium oxonate-induced hyperuricemia Kunming mouse model assessed as reduction in hyperuricemia-induced renal fibrosis by measuring tubular dilation with epithelial atrophy at 5 to 20 mg/kg, po administered via gavage for 2 weeks by Masson trichrome staining based optical microscopic analysis; format: functional, organism-based; details: dose 5-20 mg/kg
[26] = tested on: HK-2; assay: Antiinflammatory activity in hyperuricemic human HK-2 cells assessed as reduction in TGF-beta level at 12.5 to 100 uM; format: functional, cell-based; details: dose 12.5-100 µM
[27] = tested on: HK-2; assay: Inhibition of epithelial-mesenchymal transition in human HK-2 cells assessed as downregulation of uric acid-induced alpha-SMA protein expression by Western blot analysis; format: functional, cell-based; details: dose 12.5-100 µM, DDE = dose-dependent effect
[28] = tested on: Mus musculus; assay: as §2, with “renal tubule dilation” for “connective tissue hyperplasia”; format: functional, organism-based; details: time 21.0 day
[29] = tested on: Mus musculus; assay: Renal protective activity against po dosed adenine and potassium oxonate-induced hyperuricemia Kunming mouse model assessed as reduction in urate accumulation in kidney administered via gavage for 2 weeks by polarization microscopic analysis; format: functional, organism-based; details: dose 5-20 mg/kg, DDE = dose-dependent effect
[30] = tested on: Mus musculus; assay: Renal protective activity against adenine and potassium oxonate-induced hyperuricemia Kunming mouse model assessed as reduction in renal inflammation by measuring reduction in IkappaBalpha expression at 5 to 20 mg/kg, po administered via gavage for 2 weeks by Western blot analysis; format: functional, organism-based; details: dose 5-20 mg/kg
[31] = tested on: Mus musculus; assay: Anti-hyperuricemic activity against adenine and potassium oxonate-induced hyperuricemia Kunming mouse model assessed as reduction in creatinine level at 20 mg/kg, po administered via gavage once daily for 4 weeks (reference value: 76.87 +/- 0.67 uM); format: functional
[32] = tested on: Mus musculus; assay: Renal protective activity against adenine and potassium oxonate-induced hyperuricemia Kunming mouse model assessed as reduction in IL-8 expression in kidney at 5 to 20 mg/kg, po administered via gavage for 2 weeks by ELISA relative to control; format: functional; design: scale not given: the % may be the effect or the level left; details: dose 5-20 mg/kg
[33] = tested on: Mus musculus; assay: Anti-hyperuricemic activity against adenine and potassium oxonate-induced hyperuricemia Kunming mouse model assessed as reduction in creatinine level at 10 mg/kg, po administered via gavage once daily for 4 weeks (reference value: 76.87 +/- 0.67 uM); format: functional
[34] = tested on: HK-2; assay: Cytoprotective activity in human HK-2 cells assessed as reduction in uric acid-induced increase in branches and intracellular space by inverted light microscopic analysis; format: functional, cell-based; details: dose 12.5-100 µM
[35] = tested on: Mus musculus; assay: Anti-hyperuricemic activity against adenine and potassium oxonate-induced hyperuricemia Kunming mouse model assessed as blood urea nitrogen level at 10 mg/kg, po administered via gavage once daily for 4 weeks (reference value: 15.25 +/- 1.21 mM); format: functional
[36] = tested on: Mus musculus; assay: as §2, with “tubular-interstitial lesion development” for “connective tissue hyperplasia”; format: functional, organism-based; details: time 21.0 day
[37] = tested on: HK-2; assay: Antiinflammatory activity in hyperuricemic human HK-2 cells assessed as reduction in IL-1beta level at 12.5 to 100 uM; format: functional, cell-based; details: dose 12.5-100 µM
[38] = tested on: Mus musculus; assay: Renal protective activity against adenine and potassium oxonate-induced hyperuricemia Kunming mouse model assessed as reduction in TNF-alpha expression in kidney at 5 to 20 mg/kg, po administered via gavage for 2 weeks by ELISA; format: functional, organism-based; details: dose 5-20 mg/kg
[39] = tested on: Mus musculus; assay: Renal protective activity against adenine and potassium oxonate-induced hyperuricemia Kunming mouse model assessed as reduction in hyperuricemia-induced renal fibrosis by measuring reduction in alpha-SMA expression in kidney at 5 to 20 mg/kg, po administered via gavage for 2 weeks by immunoblot analysis; format: functional, organism-based; details: dose 5-20 mg/kg
[40] = tested on: Mus musculus; assay: Renal protective activity against adenine and potassium oxonate-induced hyperuricemia Kunming mouse model assessed as reduction in renal inflammation by measuring reduction in NF-kappaB expression at 5 to 20 mg/kg, po administered via gavage for 2 weeks by Western blot analysis; format: functional, organism-based; details: dose 5-20 mg/kg
[41] = tested on: Mus musculus; assay: as §3, with “extracellular matrix protein deposition” for “hyperuricemia-induced renal fibrosis”, “interstitial expansion” for “tubular dilation”, “collagen accumulation” for “epithelial atrophy”; format: functional, organism-based; details: dose 5-20 mg/kg
[42] = biological target: T1, Xanthine dehydrogenase/oxidase; assay: Inhibition of bovine XOD assessed as inhibition of uric acid formation using xanthine as substrate preincubated with enzyme for 5 mins followed by substrate addition and measured for 30 mins by microplate reader analysis
[43] = tested on: Mus musculus; assay: Anti-hyperuricemic activity against adenine and potassium oxonate-induced hyperuricemia Kunming mouse model assessed as blood urea nitrogen level at 20 mg/kg, po administered via gavage once daily for 2 weeks (reference value: 9.88 +/- 1.21 mM); format: functional

T1 sequence (P80457 whole entry): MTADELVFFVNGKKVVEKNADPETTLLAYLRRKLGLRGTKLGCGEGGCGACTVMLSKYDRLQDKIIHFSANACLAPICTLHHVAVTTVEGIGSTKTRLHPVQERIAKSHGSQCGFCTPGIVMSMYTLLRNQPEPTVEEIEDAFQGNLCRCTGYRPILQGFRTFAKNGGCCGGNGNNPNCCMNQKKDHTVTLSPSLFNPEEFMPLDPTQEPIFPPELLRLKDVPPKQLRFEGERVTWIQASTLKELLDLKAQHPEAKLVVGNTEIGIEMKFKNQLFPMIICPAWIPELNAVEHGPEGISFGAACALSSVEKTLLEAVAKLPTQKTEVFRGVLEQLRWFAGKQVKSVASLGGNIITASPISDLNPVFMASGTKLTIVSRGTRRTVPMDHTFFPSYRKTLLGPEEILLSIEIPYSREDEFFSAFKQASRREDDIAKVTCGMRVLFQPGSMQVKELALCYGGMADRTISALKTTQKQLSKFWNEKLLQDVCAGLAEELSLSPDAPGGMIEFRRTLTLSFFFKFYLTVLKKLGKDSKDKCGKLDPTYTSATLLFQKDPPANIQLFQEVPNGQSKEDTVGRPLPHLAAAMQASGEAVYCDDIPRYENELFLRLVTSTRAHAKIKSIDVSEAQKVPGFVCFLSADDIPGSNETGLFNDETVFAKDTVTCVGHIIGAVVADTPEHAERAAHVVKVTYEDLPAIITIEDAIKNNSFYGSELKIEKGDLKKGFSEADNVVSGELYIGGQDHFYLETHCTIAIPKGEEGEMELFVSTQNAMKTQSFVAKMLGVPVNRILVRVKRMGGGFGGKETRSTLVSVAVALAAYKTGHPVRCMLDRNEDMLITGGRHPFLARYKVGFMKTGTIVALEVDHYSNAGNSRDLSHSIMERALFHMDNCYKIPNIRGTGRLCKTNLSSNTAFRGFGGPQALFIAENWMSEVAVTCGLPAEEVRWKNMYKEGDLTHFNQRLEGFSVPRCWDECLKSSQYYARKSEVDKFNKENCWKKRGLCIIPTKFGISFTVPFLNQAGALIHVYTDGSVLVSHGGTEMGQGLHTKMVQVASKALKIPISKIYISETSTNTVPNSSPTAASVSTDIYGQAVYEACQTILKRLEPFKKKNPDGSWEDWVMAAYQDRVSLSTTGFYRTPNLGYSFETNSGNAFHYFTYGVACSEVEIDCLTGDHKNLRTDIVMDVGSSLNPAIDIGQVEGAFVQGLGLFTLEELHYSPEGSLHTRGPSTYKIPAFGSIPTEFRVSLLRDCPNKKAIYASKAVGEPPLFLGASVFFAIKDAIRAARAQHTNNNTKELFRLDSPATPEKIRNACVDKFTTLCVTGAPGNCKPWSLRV

remaining at 4 h [8]: 47.6%
remaining at 4 h [10]: 53.3%
inhibition (INH) [19]: Active
IC50 [42]: 1370 nM
Structure (SMILES): CC(=O)OCC1=CC[C@@H]2C(C(=O)Nc3ncco3)=CO[C@@H](O[C@@H]3O[C@H](COC(C)=O)[C@@H](OC(C)=O)[C@H](OC(C)=O)[C@H]3OC(C)=O)[C@H]12
Activity [1]: >50%
Activity [2]: 182.66 µM
Activity [3]: Active
Activity [4]: 188.16 µM
Activity [5]: Active
Activity [6]: 10.05 mM
Activity [7]: Active
Activity [9]: Active
Activity [11]: Active
Activity [12]: Dde
Activity [13]: Active
Activity [14]: 54.79 µM
Activity [15]: Active
inhibition [16]: Dde
Activity [17]: Active
Activity [18]: 235.87 µM
Activity [20]: 29.08 µM
Activity [21]: 8.02 mM
Activity [22]: Active
inhibition [23]: Dde
Activity [24]: 198.27 µM
Activity [25]: Active
Activity [26]: Active
inhibition [27]: Dde
Activity [28]: Active
Activity [29]: Dde
Activity [30]: Active
Activity [31]: 38.81 µM
Activity [32]: >50%
Activity [33]: 47.17 µM
Activity [34]: Active
Activity [35]: 8.82 mM
Activity [36]: Active
Activity [37]: Active
Activity [38]: Active
Activity [39]: Active
Activity [40]: Active
Activity [41]: Active
Activity [43]: 5.62 mM
